# Measured values reported in patent US9670261B2 (Sanofi, priority 2012, dated 2017).
# *1 amine or outer side, *2 acyl side, *3 side chain or, on linkers, in order; H or OH if unused. Where a SMILES comes first, the peptide text is derived from it. Side-chain parts run from the residue outwards. [ ]: non-standard residue; d: D form. The star is where a group is joined. γGlu = O=C(O)[C@H](CCC(=O)[*:2])N[*:1]; Stearoyl = CCCCCCCCCCCCCCCCCC(=O)*; Palmitoyl = CCCCCCCCCCCCCCCC(=O)*; Aib = CC(C)(N)C(=O)O; βAla = NCCC(=O)O
# Assays:
# human GLP-1 receptor = molecular target: T1, human GLP-1 receptor (Homo sapiens, UniProt P43220); experiment: cAMP response (HTRF) of HEK-293 cells stably expressing human GLP-1 receptor; type: cell-based; conditions: Table 7; cAMP formation; read-out: EC50 hGLP-1 R
# T1 construct: expressed in transfected cells
# T1 sequence (P43220 24-463): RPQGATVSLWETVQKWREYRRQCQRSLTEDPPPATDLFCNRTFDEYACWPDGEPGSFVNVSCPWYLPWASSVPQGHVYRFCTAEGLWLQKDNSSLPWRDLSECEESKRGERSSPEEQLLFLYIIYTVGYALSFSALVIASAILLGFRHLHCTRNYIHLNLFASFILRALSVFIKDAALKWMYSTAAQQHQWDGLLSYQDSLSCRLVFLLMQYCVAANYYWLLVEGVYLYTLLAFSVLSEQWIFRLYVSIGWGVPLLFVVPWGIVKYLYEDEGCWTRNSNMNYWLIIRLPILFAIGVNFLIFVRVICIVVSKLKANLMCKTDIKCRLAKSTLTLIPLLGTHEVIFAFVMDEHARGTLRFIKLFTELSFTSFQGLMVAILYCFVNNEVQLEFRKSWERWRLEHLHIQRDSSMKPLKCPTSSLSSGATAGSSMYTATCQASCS
# Protocol: cAMP content of cells was determined using a kit from Cisbio Corp. (cat. no. 62AM4PEC) based on HTRF (Homogenous Time Resolved Fluorescence). For preparation, cells were split into T175 culture flasks and grown overnight to near confluency in medium (DMEM/10% FBS). Medium was then removed and cells washed with PBS lacking calcium and magnesium, followed by proteinase treatment with accutase (Sigma-Aldrich cat. no. A6964). Detached cells were washed and resuspended in assay buffer (1×HBSS; 20 mM HEPES, 0.1% BSA, 2 mM IBMX) and cellular density determined. They were then diluted to 400000 cells/ml and 25 μl-aliquots dispensed into the wells of 96-well plates. For measurement, 25 μl of test compound in assay buffer was added to the wells, followed by incubation for 30 minutes at room temperature.
# [1] = Solubility testing in buffer (HPLC-UV); conditions: buffer
# [2] = Pharmacokinetic testing in mice, s.c.; conditions: mouse, plasma, sc, 1 mg/kg
# Protocol: Mice were dosed 1 mg/kg subcutaneously (s.c.). The mice were sacrified and blood samples were collected after 0.25, 0.5, 1, 2, 4, 8, 16 and 24 hours post application. Plasma samples were analyzed after protein precipitation via liquid chromatography mass spectrometry (LC/MS). PK parameters and half-life were calculated using WinonLin Version 5.2.1 (non-compartment model).
# [3] = Chemical stability in solution, 7 days at 25° C. (% remaining peptide); conditions: % remaining peptide after 7 days at 25° C.
# Protocol: After that time course, the sample was centrifuged for 20 min at 4000 rpm and the supernatant was analysed with HPLC-UV. For determination of the amount of the remaining peptide, the peak areas of the target compound at t0 and t7 were compared, resulting in “% remaining peptide”, following the equation % remaining peptide=[(peak area peptide t7)×100]/peak area peptide t0.
# The chemical stability is expressed as “% remaining peptide”.
SMILES,EC50 (human GLP-1 receptor) [pM],solubility at 2 h ([1]; pH 4.5) [µg/mL],solubility at 2 h ([1]; pH 7.4) [µg/mL],Cmax [2] [ng/mL],half-life [2] [h],Stability (pH 4.5) [3] [%],Stability (pH 7.4) [3] [%]
"CCCCCCCCCCCCCCCC(=O)N[C@@H](CCC(=O)NCCCC[C@H](NC(=O)[C@H](CCC(N)=O)NC(=O)[C@@H](NC(=O)[C@H](CO)NC(=O)[C@H](CC(C)C)NC(=O)[C@H](CC(=O)O)NC(=O)[C@H](CO)NC(=O)[C@@H](NC(=O)[C@H](Cc1ccccc1)NC(=O)[C@@H](NC(=O)CNC(=O)[C@H](CCC(N)=O)NC(=O)C(C)(C)NC(=O)[C@@H](N)Cc1ccc(O)cc1)[C@@H](C)O)[C@@H](C)O)[C@@H](C)CC)C(=O)N[C@@H](CCC(=O)O)C(=O)N[C@@H](CCCCN)C(=O)N[C@@H](CCCNC(=N)N)C(=O)N[C@@H](C)C(=O)N[C@@H](C)C(=O)NC(C)(C)C(=O)N[C@@H](CCC(=O)O)C(=O)N[C@@H](Cc1ccccc1)C(=O)N[C@H](C(=O)N[C@@H](CCC(=O)O)C(=O)N[C@@H](Cc1c[nH]c2ccccc12)C(=O)N[C@@H](CC(C)C)C(=O)N[C@@H](CCCCN)C(=O)N[C@@H](CC(N)=O)C(=O)N[C@H](C(=O)NCC(=O)N1CCC[C@H]1C(=O)N[C@@H](CO)C(=O)N[C@@H](CO)C(=O)NCC(=O)N[C@@H](C)C(=O)N1CCC[C@H]1C(=O)N1CCC[C@H]1C(=O)N1CCC[C@H]1C(=O)N[C@@H](CO)C(N)=O)[C@@H](C)O)[C@@H](C)CC)C(=O)O [SEQ ID NO: 8, Y-Aib-Q-G-T-F-T-S-D-L-S-I-Q-K(γE-x53)-E-K-R-A-A-Aib-E-F-I-E-W-L-K-N-T-G-P-S-S-G-A-P-P-P-S-NH2] (H-Y[Aib]QGTFTSDLSIQK([γGlu-Palmitoyl])EKRAA[Aib]EFIEWLKNTGPSSGAPPPS-NH2)",5.3,> 1000,972,3740,3.4,98.0,98.0
"CCCCCCCCCCCCCCCCCC(=O)N[C@@H](CCC(=O)NCCCC[C@H](NC(=O)[C@H](CCC(N)=O)NC(=O)[C@@H](NC(=O)[C@H](CO)NC(=O)[C@H](CC(C)C)NC(=O)[C@H](CC(=O)O)NC(=O)[C@H](CO)NC(=O)[C@@H](NC(=O)[C@H](Cc1ccccc1)NC(=O)[C@@H](NC(=O)CNC(=O)[C@H](CCC(=O)O)NC(=O)C(C)(C)NC(=O)[C@@H](N)Cc1ccc(O)cc1)[C@@H](C)O)[C@@H](C)O)[C@@H](C)CC)C(=O)N[C@@H](CCC(=O)O)C(=O)N[C@@H](CCCCN)C(=O)N[C@@H](CCCNC(=N)N)C(=O)N[C@@H](C)C(=O)N[C@@H](C)C(=O)NC(C)(C)C(=O)N[C@@H](CCC(=O)O)C(=O)N[C@@H](Cc1ccccc1)C(=O)N[C@H](C(=O)N[C@@H](CCC(=O)O)C(=O)N[C@@H](Cc1c[nH]c2ccccc12)C(=O)N[C@@H](CC(C)C)C(=O)N[C@@H](CCCCN)C(=O)N[C@@H](CC(N)=O)C(=O)N[C@H](C(=O)NCC(=O)N1CCC[C@H]1C(=O)N[C@@H](CO)C(=O)N[C@@H](CO)C(=O)NCC(=O)N[C@@H](C)C(=O)N1CCC[C@H]1C(=O)N1CCC[C@H]1C(=O)N1CCC[C@H]1C(=O)N[C@@H](CO)C(N)=O)[C@@H](C)O)[C@@H](C)CC)C(=O)O [SEQ ID NO: 15, Y-Aib-E-G-T-F-T-S-D-L-S-I-Q-K(γE-x70)-E-K-R-A-A-Aib-E-F-I-E-W-L-K-N-T-G-P-S-S-G-A-P-P-P-S-NH2] (H-Y[Aib]EGTFTSDLSIQK([γGlu-Stearoyl])EKRAA[Aib]EFIEWLKNTGPSSGAPPPS-NH2)",,997,> 1000,5000,3.5,91.0,90.0
"CCCCCCCCCCCCCCCCCC(=O)NCCC(=O)NCCC(=O)NCCCC[C@H](NC(=O)[C@H](CCC(N)=O)NC(=O)[C@@H](NC(=O)[C@H](CO)NC(=O)[C@H](CC(C)C)NC(=O)[C@H](CC(=O)O)NC(=O)[C@H](CO)NC(=O)[C@@H](NC(=O)[C@H](Cc1ccccc1)NC(=O)[C@@H](NC(=O)CNC(=O)[C@H](CCC(=O)O)NC(=O)C(C)(C)NC(=O)[C@@H](N)Cc1ccc(O)cc1)[C@@H](C)O)[C@@H](C)O)[C@@H](C)CC)C(=O)N[C@@H](CCC(=O)O)C(=O)N[C@@H](CCCCN)C(=O)N[C@@H](CCCNC(=N)N)C(=O)N[C@@H](C)C(=O)N[C@@H](C)C(=O)NC(C)(C)C(=O)N[C@@H](CCC(=O)O)C(=O)N[C@@H](Cc1ccccc1)C(=O)N[C@H](C(=O)N[C@@H](CCC(=O)O)C(=O)N[C@@H](Cc1c[nH]c2ccccc12)C(=O)N[C@@H](CC(C)C)C(=O)N[C@@H](CCCCN)C(=O)N[C@@H](CC(N)=O)C(=O)N[C@H](C(=O)NCC(=O)N1CCC[C@H]1C(=O)N[C@@H](CO)C(=O)N[C@@H](CO)C(=O)NCC(=O)N[C@@H](C)C(=O)N1CCC[C@H]1C(=O)N1CCC[C@H]1C(=O)N1CCC[C@H]1C(=O)N[C@@H](CO)C(N)=O)[C@@H](C)O)[C@@H](C)CC [SEQ ID NO: 18, Y-Aib-E-G-T-F-T-S-D-L-S-I-Q-K(βA-βA-x70)-E-K-R-A-A-Aib-E-F-I-E-W-L-K-N-T-G-P-S-S-G-A-P-P-P-S-NH2] (H-Y[Aib]EGTFTSDLSIQK([βAla-βAla-Stearoyl])EKRAA[Aib]EFIEWLKNTGPSSGAPPPS-NH2)",7.6,,,5750,2.1,,
"CCCCCCCCCCCCCCCC(=O)N[C@@H](CCC(=O)NCCCC[C@H](NC(=O)[C@H](CCC(N)=O)NC(=O)[C@@H](NC(=O)[C@H](CO)NC(=O)[C@H](CC(C)C)NC(=O)[C@H](CC(=O)O)NC(=O)[C@H](CO)NC(=O)[C@@H](NC(=O)[C@H](Cc1ccccc1)NC(=O)[C@@H](NC(=O)CNC(=O)[C@H](CCC(=O)O)NC(=O)C(C)(C)NC(=O)[C@@H](N)Cc1ccc(O)cc1)[C@@H](C)O)[C@@H](C)O)[C@@H](C)CC)C(=O)N[C@@H](CCC(=O)O)C(=O)N[C@@H](CCCCN)C(=O)N[C@@H](CCCNC(=N)N)C(=O)N[C@@H](C)C(=O)N[C@@H](C)C(=O)N[C@@H](CCC(N)=O)C(=O)N[C@@H](CCC(=O)O)C(=O)N[C@@H](Cc1ccccc1)C(=O)N[C@H](C(=O)N[C@@H](CCC(=O)O)C(=O)N[C@@H](Cc1c[nH]c2ccccc12)C(=O)N[C@@H](CC(C)C)C(=O)N[C@@H](CCCCN)C(=O)N[C@@H](CC(N)=O)C(=O)N[C@H](C(=O)NCC(=O)N1CCC[C@H]1C(=O)N[C@@H](CO)C(=O)N[C@@H](CO)C(=O)NCC(=O)N[C@@H](C)C(=O)N1CCC[C@H]1C(=O)N1CCC[C@H]1C(=O)N1CCC[C@H]1C(=O)N[C@@H](CO)C(N)=O)[C@@H](C)O)[C@@H](C)CC)C(=O)O [SEQ ID NO: 26, Y-Aib-E-G-T-F-T-S-D-L-S-I-Q-K(γE-x53)-EKRAAQEFIEWLKNTGPSSGAPPPS-NH2] (H-Y[Aib]EGTFTSDLSIQK([γGlu-Palmitoyl])EKRAAQEFIEWLKNTGPSSGAPPPS-NH2)",4.9,,,3120,3.7,,
"CCCCCCCCCCCCCCCC(=O)N[C@@H](CCC(=O)NCCCC[C@H](NC(=O)[C@H](CCC(N)=O)NC(=O)[C@@H](NC(=O)[C@H](CO)NC(=O)[C@H](CC(C)C)NC(=O)[C@H](CC(=O)O)NC(=O)[C@H](CO)NC(=O)[C@@H](NC(=O)[C@H](Cc1ccccc1)NC(=O)[C@@H](NC(=O)CNC(=O)[C@H](CCC(=O)O)NC(=O)C(C)(C)NC(=O)[C@@H](N)Cc1ccc(O)cc1)[C@@H](C)O)[C@@H](C)O)[C@@H](C)CC)C(=O)N[C@@H](CC(=O)O)C(=O)N[C@@H](CCCCN)C(=O)N[C@@H](CCCNC(=N)N)C(=O)N[C@@H](C)C(=O)N[C@@H](C)C(=O)N[C@@H](CCC(N)=O)C(=O)N[C@@H](CC(=O)O)C(=O)N[C@@H](Cc1ccccc1)C(=O)N[C@H](C(=O)N[C@@H](CCC(=O)O)C(=O)N[C@@H](Cc1c[nH]c2ccccc12)C(=O)N[C@@H](CC(C)C)C(=O)N[C@@H](CCCCN)C(=O)N[C@@H](C)C(=O)NCC(=O)NCC(=O)N1CCC[C@H]1C(=O)N[C@@H](CO)C(=O)N[C@@H](CO)C(=O)NCC(=O)N[C@@H](C)C(=O)N1CCC[C@H]1C(=O)N1CCC[C@H]1C(=O)N1CCC[C@H]1C(=O)N[C@@H](CO)C(N)=O)[C@@H](C)CC)C(=O)O [SEQ ID NO: 31, Y-Aib-E-G-T-F-T-S-D-L-S-I-Q-K(γE-x53)-DKRAAQDFIEWLKAGGPSSGAPPPS-NH2]",6,> 1000,> 1000,,,94.0,96.0
"CCCCCCCCCCCCCCCC(=O)N[C@@H](CCC(=O)NCCCC[C@H](NC(=O)[C@H](CCC(N)=O)NC(=O)[C@@H](NC(=O)[C@H](CO)NC(=O)[C@H](CC(C)C)NC(=O)[C@H](CC(=O)O)NC(=O)[C@H](CO)NC(=O)[C@@H](NC(=O)[C@H](Cc1ccccc1)NC(=O)[C@@H](NC(=O)CNC(=O)[C@H](CCC(=O)O)NC(=O)C(C)(C)NC(=O)[C@@H](N)Cc1ccc(O)cc1)[C@@H](C)O)[C@@H](C)O)[C@@H](C)CC)C(=O)N[C@@H](CCC(=O)O)C(=O)N[C@@H](CO)C(=O)N[C@@H](CCCNC(=N)N)C(=O)N[C@@H](C)C(=O)N[C@@H](C)C(=O)NC(C)(C)C(=O)N[C@@H](CCC(=O)O)C(=O)N[C@@H](Cc1ccccc1)C(=O)N[C@H](C(=O)N[C@@H](CCC(=O)O)C(=O)N[C@@H](Cc1c[nH]c2ccccc12)C(=O)N[C@@H](CC(C)C)C(=O)N[C@@H](CCCCN)C(=O)N[C@@H](C)C(=O)NCC(=O)NCC(=O)N1CCC[C@H]1C(=O)N[C@@H](CO)C(=O)N[C@@H](CO)C(=O)NCC(=O)N[C@@H](C)C(=O)N1CCC[C@H]1C(=O)N1CCC[C@H]1C(=O)N1CCC[C@H]1C(=O)N[C@@H](CO)C(N)=O)[C@@H](C)CC)C(=O)O [SEQ ID NO: 35, Y-Aib-E-G-T-F-T-S-D-L-S-I-Q-K(γE-x53)-E-S-R-A-A-Aib-E-F-I-E-W-L-K-A-G-G-P-S-S-G-A-P-P-P-S-NH2] (H-Y[Aib]EGTFTSDLSIQK([γGlu-Palmitoyl])ESRAA[Aib]EFIEWLKAGGPSSGAPPPS-NH2)",6.9,424,> 1000,,,100.0,98.0
